For experiment [1], the target named is T1, human orexin-2 receptor (hOX2R) (Homo sapiens, UniProt O43614).
T1 construct: expressed in transfected cells; host or cells: Chinese hamster ovary (CHO) cells, grown under G418 selection
T1 sequence (O43614 1-444): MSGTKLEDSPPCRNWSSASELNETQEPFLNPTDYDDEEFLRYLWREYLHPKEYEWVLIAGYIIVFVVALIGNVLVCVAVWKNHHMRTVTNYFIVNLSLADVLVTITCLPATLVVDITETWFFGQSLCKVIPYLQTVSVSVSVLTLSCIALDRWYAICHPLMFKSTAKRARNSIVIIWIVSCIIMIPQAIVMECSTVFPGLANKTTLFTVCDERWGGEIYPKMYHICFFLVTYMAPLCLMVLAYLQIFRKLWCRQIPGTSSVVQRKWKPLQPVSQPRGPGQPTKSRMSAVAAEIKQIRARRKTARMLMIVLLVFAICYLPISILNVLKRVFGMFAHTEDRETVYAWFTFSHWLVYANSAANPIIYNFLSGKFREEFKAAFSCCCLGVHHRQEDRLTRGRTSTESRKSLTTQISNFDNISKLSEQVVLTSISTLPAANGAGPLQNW
Briefly: FLIPR Ca2+ Flux Assay, CHO cells expressing hOX2R. To be noted: agonist 70 pM Ala-6,12 orexin-A. In kind it is cell-based. Here is the method:
The utility of the compounds in accordance with the present invention as orexin receptor OX1R and/or OX2R antagonists may be readily determined without undue experimentation by methodology well known in the art, including the “FLIPR Ca^2+ Flux Assay” (Okumura et al., Biochem. Biophys. Res. Comm. 280:976-981, 2001). In a typical experiment the OX1 and OX2 receptor antagonistic activity of the compounds of the present invention was determined in accordance with the following experimental method. For intracellular calcium measurements, Chinese hamster ovary (CHO) cells expressing the rat orexin-1 receptor or the human orexin-2 receptor, are grown in Iscove's modified DMEM containing 2 mM L-glutamine, […], 1% hypoxanthine-thymidine supplement, 100 U/ml penicillin, 100 μg/ml streptomycin and 10% heat-inactivated fetal calf serum (FCS). The cells are seeded at 20,000 cells/well into Becton-Dickinson black 384-well clear bottom sterile plates coated with poly-D-lysine. All reagents were from GIBCO-Invitrogen Corp. The seeded plates are incubated overnight at 37° C. and 5% CO2. Ala-6,12 human orexin-A as the agonist is prepared as a 1 mM stock solution in 1% bovine serum albumin (BSA) and diluted in assay buffer (HBSS containing 20 mM HEPES, 0.1% BSA and 2.5 mM probenecid, pH7.4) for use in the assay at a final concentration of 70 pM. Test compounds are prepared as 10 mM stock solution in DMSO, then diluted in 384-well plates, first in DMSO, then assay buffer. On the day of the assay, cells are washed 3 times with 100 μl assay buffer and then incubated for 60 min (37° C., 5% CO2) in 60 μl assay buffer containing 1 μM Fluo-4AM ester, 0.02% pluronic acid, and 1% BSA. The dye loading solution is then aspirated and cells are washed 3 times with 100 μl assay buffer. 30 μl of that same buffer is left in each well. Within the Fluorescent Imaging Plate Reader (FLIPR, Molecular Devices), test compounds are added to the plate in a volume of 25 μl, incubated for 5 min and finally 25 μl of agonist is added. Fluorescence is measured for each well at 1 second intervals for 5 minutes and the height of each fluorescence peak is compared to the height of the fluorescence peak induced by 70 pM Ala-6,12 orexin-A with buffer in place of antagonist. For each antagonist, IC50 value (the concentration of compound needed to inhibit 50% of the agonist response) is determined. Alternatively, compound potency can be assessed by a radioligand binding assay (described in Bergman et. al. Bioorg. Med. Chem. Lett. 2008, 18, 1425-1430) in which the inhibition constant (Ki) is determined in membranes prepared from CHO cells expressing either the OX1 or OX2 receptor. The intrinsic orexin receptor antagonist activity of a compound which may be used in the present invention may be determined by these assays.
Chinese hamster ovary (CHO) cells expressing the human orexin-1 receptor (hOX1R) or the human orexin-2 receptor (hOX2R) were grown in Iscove's modified DMEM containing 2 mM L-glutamine, […], 1% hypoxanthine-thymidine supplement, 100 U/ml penicillin, 100 μg/ml streptomycin and 10% heat-inactivated fetal calf serum (FCS). The cells were seeded at 20,000 cells/well into Becton-Dickinson black 384-well clear bottom sterile plates coated with poly-D-lysine. All reagents were from GIBCO-Invitrogen Corp. The seeded plates were incubated overnight at 37° C. and 5% CO2. Ala-6,12 human orexin-A, used as the agonist, was prepared as a 1 mM stock solution in 1% bovine serum albumin (BSA) and diluted in assay buffer (HBSS containing 20 mM HEPES, 0.1% BSA and 2.5 mM probenecid, pH7.4) for use in the assay at a final concentration of 70 pM. Test compounds were prepared as 10 mM stock solution in DMSO, then diluted in 384-well plates, first in DMSO, then assay buffer. […]

Experiment [2] addresses T2, human orexin-1 receptor (hOX1R) (Homo sapiens, UniProt O43613).
T2 construct: expressed in transfected cells; host or cells: Chinese hamster ovary (CHO) cells, grown under G418 selection
T2 sequence (O43613 1-425): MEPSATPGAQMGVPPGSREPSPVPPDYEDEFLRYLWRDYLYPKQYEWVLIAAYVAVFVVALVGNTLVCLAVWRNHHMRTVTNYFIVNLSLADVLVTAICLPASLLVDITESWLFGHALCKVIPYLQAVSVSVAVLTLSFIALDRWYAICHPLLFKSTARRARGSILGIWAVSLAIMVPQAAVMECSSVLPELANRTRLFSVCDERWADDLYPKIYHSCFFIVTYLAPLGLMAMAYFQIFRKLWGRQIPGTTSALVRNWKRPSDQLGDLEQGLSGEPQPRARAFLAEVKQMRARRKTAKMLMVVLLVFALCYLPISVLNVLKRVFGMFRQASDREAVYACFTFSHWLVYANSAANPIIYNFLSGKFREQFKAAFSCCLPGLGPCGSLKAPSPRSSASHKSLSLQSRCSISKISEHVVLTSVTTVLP
Briefly: FLIPR Ca2+ Flux Assay, CHO cells expressing hOX1R. To be noted: agonist 70 pM Ala-6,12 orexin-A. It counts as cell-based. The procedure: Chinese hamster ovary (CHO) cells expressing the human orexin-1 receptor (hOX1R) or the human orexin-2 receptor (hOX2R) were grown in Iscove's modified DMEM containing 2 mM L-glutamine, […], 1% hypoxanthine-thymidine supplement, 100 U/ml penicillin, 100 μg/ml streptomycin and 10% heat-inactivated fetal calf serum (FCS). The cells were seeded at 20,000 cells/well into Becton-Dickinson black 384-well clear bottom sterile plates coated with poly-D-lysine. All reagents were from GIBCO-Invitrogen Corp. The seeded plates were incubated overnight at 37° C. and 5% CO2. Ala-6,12 human orexin-A, used as the agonist, was prepared as a 1 mM stock solution in 1% bovine serum albumin (BSA) and diluted in assay buffer (HBSS containing 20 mM HEPES, 0.1% BSA and 2.5 mM probenecid, pH7.4) for use in the assay at a final concentration of 70 pM. Test compounds were prepared as 10 mM stock solution in DMSO, then diluted in 384-well plates, first in DMSO, then assay buffer.
On the day of the assay, cells were washed 3× with 100 μl assay buffer and then incubated for 60 minutes (37° C., 5% CO2) in 60 μl assay buffer containing 1 μM Fluo-4AM ester, 0.02% pluronic acid, and 1% BSA. The dye loading solution was then aspirated and cells were washed 3× with 100 μl assay buffer. 30 μl of that same buffer was left in each well. Within the Fluorescent Imaging Plate Reader (FLIPR, Molecular Devices), test compounds were added to the plate in a volume of 25 μl, incubated for 5 minutes, and then 25 μl of agonist was added. Fluorescence was measured for each well at 1 second intervals for 5 minutes, and the height of each fluorescence peak was compared to the height of the fluorescence peak induced by 70 pM of Ala-6,12 orexin-A with buffer in place of test compound.

Experimental findings from patent US20160102073A1, “2-HYDROXYMETHYL-SUBSTITUTED OREXIN RECEPTOR ANTAGONISTS” (MERCK SHARP & DOHME CORP., priority 2013, published 2016) are described below.

Turning to `CC[C@@H](O)c1cccnc1O[C@@H]1CC[C@@H](C)N(C(=O)c2ccccc2-n2nccn2)C1` [Example 33, (1R)-1-(2-{[(3R,6R)-6-methyl-1-{[2-(2H-1,2,3-triazol-2-yl)phenyl]carbonyl}piperidin-3-yl]oxy}pyridin-3-yl) propan-1-ol], the IC50 was 33 nM in experiment [1] and 46 nM in experiment [2].

Take `C[C@@H]1CC[C@@H](Oc2ncccc2CO)CN1C(=O)c1ccccc1-n1ncnn1` [Example 50, (2-{[(3R,6R)-6-methyl-1-{[2-(2H-tetrazol-2-yl)phenyl]carbonyl}piperidin-3-yl]oxy}pyridin-3-yl)methanol]: the IC50 in experiment [1] was 289 nM; in experiment [2], 1840 nM.

On to `C[C@@H]1CC[C@@H](Oc2ncccc2C(C)(C)O)CN1C(=O)c1cc(C#N)ccc1-n1nccn1` [Example 7, 3-{[(2R,5R)-5-{[3-(1-hydroxy-1-methylethyl)pyridin-2-yl]oxy}-2-methylpiperidin-1-yl]carbonyl}-4-(2H-1,2,3-triazol-2-yl)benzonitrile], for which the values for the IC50 in experiment [1] and in experiment [2] were 88 nM and 418 nM, respectively.

As for `COc1ccc(C(=O)N2C[C@H](Oc3ncccc3CO)CC[C@H]2C)c(-n2nccn2)n1` [Example 49, (2-{[(3R,6R)-1-{[6-Methoxy-2-(2H-1,2,3-triazol-2-yl)pyridin-3-yl]carbonyl}-6-methylpiperidin-3-yl]oxy}pyridin-3-yl)methanol], the IC50 in experiment [1] was determined as 588 nM; in experiment [2], 10000 nM.

Take `C[C@@H]1CC[C@@H](Oc2ncccc2[C@@H](C)O)CN1C(=O)c1ccccc1-n1nccn1` [Example 29, (1R)-1-(2-{[(3R,6R)-6-Methyl-1-{[2-(2H-1,2,3-triazol-2-yl)phenyl]carbonyl}piperidin-3-yl]oxy}pyridin-3-yl)ethanol]: the IC50 amounted to 49 nM in experiment [1] and 1160 nM in experiment [2].

Take `COc1ccc(C(=O)N2C[C@H](Oc3ncccc3C(C)(C)O)CC[C@H]2C)c(C2CC2)c1` [Example 15, 2-[2-({(3R,6R)-1-[(2-cyclopropyl-4-methoxyphenyl)carbonyl]-6-methylpiperidin-3-yl}oxy)pyridin-3-yl]propan-2-ol]: the concentration for half-maximal inhibition (IC50) in experiment [1] is 148 nM; in experiment [2], 2300 nM.

Consider `C[C@@H]1CC[C@@H](Oc2ncccc2C(C)(C)O)CN1C(=O)c1ccc(F)cc1C1CC1` [Example 14, 2-[2-({(3R,6R)-1-[(2-cyclopropyl-4-fluorophenyl)carbonyl]-6-methylpiperidin-3-yl}oxy)pyridin-3-yl]propan-2-ol], for which the IC50 stood at 49 nM in experiment [1] and 475 nM in experiment [2].

Take `Cc1ccc(C(C)(C)O)c(O[C@@H]2CC[C@@H](C)N(C(=O)c3ccccc3-n3nccn3)C2)n1` [Example 25, 2-(6-Methyl-2-{[(3R,6R)-6-methyl-1-{[2-(2H-1,2,3-triazol-2-yl)phenyl]carbonyl}piperidin-3-yl]oxy}pyridin-3-yl)propan-2-ol]: the IC50 in experiment [1] was determined as 77 nM; in experiment [2], 55 nM.

In the case of `C[C@@H]1CC[C@@H](Oc2ncccc2C(C)(C)O)CN1C(=O)c1ccsc1-n1nccn1` [Example 18, 2-(2-{[(3R,6R)-6-methyl-1-{[2-(2H-1,2,3-triazol-2-yl)thiophen-3-yl]carbonyl}piperidin-3-yl]oxy}pyridin-3-yl)propan-2-ol], the values for the IC50 in experiment [1] and in experiment [2] were 9 nM and 18 nM, respectively.

For `C[C@@H]1CC[C@@H](Oc2ncccc2[C@H](O)C(F)(F)F)CN1C(=O)c1ccccc1-n1nccn1` [Example 36, (1S)-2,2,2-Trifluoro-1-(2-{[(3R,6R)-6-methyl-1-{[2-(2H-1,2,3-triazol-2-yl)phenyl]carbonyl}piperidin-3-yl]oxy}pyridin-3-yl)ethanol], the values for the IC50 in experiment [1] and in experiment [2] were 24 nM and 904 nM, respectively.

Consider `CC[C@H](O)c1cccnc1O[C@@H]1CC[C@@H](C)N(C(=O)c2ccccc2-n2nccn2)C1` [Example 32, (1S)-1-(2-{[(3R,6R)-6-methyl-1-{[2-(2H-1,2,3-triazol-2-yl)phenyl]carbonyl}piperidin-3-yl]oxy}pyridin-3-yl)propan-1-ol], for which the IC50 in experiment [1] worked out at 27 nM; in experiment [2] it was 227 nM.

In the case of `C[C@@H]1CC[C@@H](Oc2ncccc2C(C)(C)O)CN1C(=O)c1ccccc1-c1ccccc1` [Example 8, 2-(2-{[(3R,6R)-1-(biphenyl-2-ylcarbonyl)-6-methylpiperidin-3-yl]oxy}pyridin-3-yl)propan-2-ol], the IC50 stood at 70 nM in experiment [1] and 124 nM in experiment [2].

Take `C[C@@H]1CC[C@@H](Oc2ncccc2CO)CN1C(=O)c1ccccc1-n1nccn1` [Example 39, (2-{[(3R,6R)-6-Methyl-1-{[2-(2H-1,2,3-triazol-2-yl)phenyl]carbonyl}piperidin-3-yl]oxy}pyridin-3-yl)methanol]: the IC50 turned out to be 18 nM in experiment [1] and 925 nM in experiment [2].
